Laboratory results taken from ChEMBL document CHEMBL4265885, “New piperidine-based derivatives as sigma receptor ligands. Synthesis and pharmacological evaluation” (Bioorg Med Chem Lett, 2018).

Experiments:
Rattus norvegicus = organism: Rattus norvegicus; assay: Selectivity index, ratio of Ki for sigma2 receptor in rat liver membranes to Ki for sigma1 receptor in rat liver membranes; format: cell membranes
[1] = target: Sigma non-opioid intracellular receptor 1 (Rattus norvegicus, UniProt Q9R0C9); assay: Displacement of [3H]-(+)-pentazocine from sigma1 receptor in rat liver membranes after 120 mins by liquid scintillation counting; format: cell membranes, Membrane
[2] = target: T1, Sigma intracellular receptor 2 (Rattus norvegicus, UniProt Q5U3Y7); assay: Displacement of [3H]-DTG from sigma2 receptor in rat liver membranes after 120 mins by liquid scintillation counting; format: cell membranes, Membrane
T1 sequence (Q5U3Y7 whole entry): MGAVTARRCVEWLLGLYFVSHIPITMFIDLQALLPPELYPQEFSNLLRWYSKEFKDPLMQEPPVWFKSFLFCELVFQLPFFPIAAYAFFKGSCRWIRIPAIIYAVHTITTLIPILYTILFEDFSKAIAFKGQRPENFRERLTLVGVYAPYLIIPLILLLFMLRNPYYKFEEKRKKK

PANC-1 = assay: Cytotoxicity against human PANC1 cells at 50 uM after 48 hrs by MTT assay; format: functional
SH-SY5Y = assay: Cytotoxicity against human SH-SY5Y cells at 50 uM after 48 hrs by MTT assay; format: functional

Sequence of Sigma non-opioid intracellular receptor 1 (Q9R0C9 whole entry): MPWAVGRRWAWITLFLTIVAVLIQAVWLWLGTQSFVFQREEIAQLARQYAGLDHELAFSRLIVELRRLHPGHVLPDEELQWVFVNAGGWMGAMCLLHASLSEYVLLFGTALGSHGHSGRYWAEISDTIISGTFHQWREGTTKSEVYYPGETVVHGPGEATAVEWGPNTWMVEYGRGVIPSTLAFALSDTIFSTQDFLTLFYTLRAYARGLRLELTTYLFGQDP

Row | Structure (SMILES) | Ratio Ki (Rattus norvegicus) | Ki [1] [µM] | Ki [2] [µM] | Activity (PANC-1) [%] | Activity (SH-SY5Y) [%]
1 | CCN(CC1CCN(Cc2ccccc2)CC1)C(C)=O | 4.3 | 0.0972 | 0.422 | – | –
2 | Fc1ccc(-n2cc(CCCCN3CCC4(CC3)OCc3ccccc34)c3ccccc32)cc1 [SIRAMESINE] | – | – | – | 90 | 90
3 | CCCN(CCC)CCc1ccc(OC)c(OCCc2ccccc2)c1 | – | – | – | 92 | 92
4 | Cc1ccccc1NC(=N)Nc1ccccc1C [DITOLYLGUANIDINE] | – | – | – | 80 | 80
5 | O=C(CCCN1CCC(O)(c2ccc(Cl)cc2)CC1)c1ccc(F)cc1 [HALOPERIDOL] | – | – | – | 66 | 66
6 | CC(C)=CCN1CCC2(C)c3cc(O)ccc3CC1C2C (stereo unspecified) [PENTAZOCINE] | – | – | – | 5 | 5
7 | c1ccc(CCN2CCCCC2)cc1 | – | – | – | 21 | 21
8 | CCCN(CC1CCN(Cc2ccccc2)CC1)C(C)=O | – | 0.0368 | – | – | –
